Test results as given in PubChem BioAssay AID488788 (Broad Institute, 2010).
Results filed as inconclusive are left out. Activity calls are given as the source filed them. How the calls were made is not given here.

Target: CAAX prenyl protease 2 (Saccharomyces cerevisiae (strain ATCC 204508 / S288c)) (UniProt Q03530)
Test: yeast Rce1 CAAX endoprotease inhibition – biochemical, plate reader, cherry-pick, dose response (AID 488788)
Conditions: Rce1p enzyme activity; for activity change, negative = inhibition: at 10 µM (top of the series)

Sequence of CAAX prenyl protease 2 (Saccharomyces cerevisiae (strain ATCC 204508 / S288c)) (Q03530 whole entry, looked up): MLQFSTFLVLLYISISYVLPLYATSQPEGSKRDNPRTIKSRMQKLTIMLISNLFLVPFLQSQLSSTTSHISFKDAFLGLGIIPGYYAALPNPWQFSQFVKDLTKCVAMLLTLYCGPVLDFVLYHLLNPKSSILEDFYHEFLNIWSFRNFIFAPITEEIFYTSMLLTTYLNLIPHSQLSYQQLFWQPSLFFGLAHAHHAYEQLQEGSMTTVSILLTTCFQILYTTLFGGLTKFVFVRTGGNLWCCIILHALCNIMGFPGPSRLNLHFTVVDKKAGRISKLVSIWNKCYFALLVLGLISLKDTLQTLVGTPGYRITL

| Compound | activity change, negative = inhibition | AC50 |
| --- | --- | --- |
| CCOC(=O)c1c(C2COc3ccccc3O2)csc1NC(=O)c1ccccc1 (stereo not drawn) | inactive | – |
| NC(N)=NC(=O)c1nc(Cl)c(N)nc1N | inactive | – |
| CC(C)C[C@H](NC(=O)c1nc[nH]c1C(=O)N1CCNCC1)C(=O)OCc1ccccc1 | inactive | – |
| Nc1nc2c(ncn2COC(CO)CO)c(=O)[nH]1 | inactive | – |
| CCc1nc(Nc2ccncc2)c2oc3ccccc3c2n1 | inactive | – |
| Cc1cc(C)n2nc(CC(=O)NNC(=O)c3ccc(N(C)C)cc3)nc2n1 | inactive | – |
| Cc1ccc(C2(COC(=O)C(C)C)CO2)c(OC(=O)C(C)C)c1 (stereo not drawn) | inactive | – |
| COc1ccc(C)c2sc(NC(=O)C3=COCCO3)nc12 | inactive | – |
| Cc1ccc(S(=O)(=O)c2cn(C)c3cc(N4CCOCC4)c(F)cc3c2=O)cc1 | inactive | – |
| Cc1c(Cl)c([N+](=O)[O-])nn1CC(=O)N1CCCc2ccccc21 | inactive | – |
| COc1cc2c(cc1OC)C(C)N(C(=O)CCNC(=O)c1ccccc1)CC2 (stereo not drawn) | inactive | – |
| O=C1CN(C(=O)NCC(=O)N2CCCC2)c2ccccc2N1 | inactive | – |
| CC(C)CC(=O)Nc1ccc2oc(-c3cccnc3)nc2c1 | inactive | – |
| COc1ccc2c3c([nH]c2c1)C(C)=NCC3 | inactive | – |
| C/C(CC1(O)C(=O)Nc2ccccc21)=N\O (stereo not drawn) | inactive | – |
| COCCCNC(=S)NCCNc1nc2cc(C)cc(C)c2cc1C#N | inactive | – |
| Cn1c(CCNS(=O)(=O)c2ccccc2)nnc1SCc1cccnc1 | inactive | – |
| COC(C/C=C\C(=O)[C@H](C)OCc1ccccc1)OC | – | > 10 µM (inactive) |
| CC(=O)c1c(C)oc2ccc(NS(=O)(=O)c3ccc(C(=O)O)cc3)cc12 | inactive | – |
| COc1cccc(-c2csc(N3CCN(C(=O)NC45CC6CC(CC(C6)C4)C5)CC3)n2)c1 | inactive | – |
| CCOC(=O)C[C@H]1c2ccccc2S(=O)(=O)N1Cc1cc(OC)c(OC)c(OC)c1 | inactive | – |
| COc1cc(NC(=O)C/C(C)=N/NC(=O)c2cccc(O)c2)c(OC)cc1Cl | inactive | – |
| CC1COc2c(N3CCN(C)CC3)c(F)cc3c(=O)c(C(=O)O)cn1c23 (stereo not drawn) | – | > 10 µM (inactive) |
| Cc1ccc(S(=O)(=O)CC(=O)N2CCN(c3ccccc3F)CC2)cc1 | inactive | – |

| Compound | activity change, negative = inhibition | AC50 |
| --- | --- | --- |
| CCCCOC(=O)Nc1nc(C)c(C(=O)OCC)s1 | inactive | – |
| CC1CCC/C(=C\Nc2ccccc2C(=O)O)C1=O (stereo not drawn) | inactive | – |
| CC(C)NCC(O)COCCOc1ccc(Br)cc1 (stereo not drawn) | inactive | – |
| COc1ccc(CC(=O)OCC(=O)Nc2ccc(Br)cc2)cc1 | inactive | – |
| COc1ccccc1C1=NN(C2=NN=C(N)Cc3ncnn32)C(O)(C(F)(F)F)C1 (stereo not drawn) | inactive | – |
| COc1ccc2oc(-c3ccccc3)c(C(=O)N3CCOCC3)c2c1 | inactive | – |
| CCN(CC)CCCNC(=O)CCc1c(C)n(CC)c2cc(-c3ccccc3OC)nn2c1=O | inactive | – |
| CC(Cc1cccs1)NC(=O)Nc1ccc([N+](=O)[O-])cc1 (stereo not drawn) | inactive | – |
| COc1cc(-c2c(C#N)c(N)nc3c2c(C)nn3-c2ccc(C)c(C)c2)cc(OC)c1OC | inactive | – |
| CCOC(=O)c1ccc(NC(=O)N2CCN(Cc3ccccc3)CC2)cc1 | inactive | – |
| CC1=CC2=NC(=O)CC(C)(C(=O)N(CC(=O)NC3CCCC3)Cc3ccccc3)N2C=C1 (stereo not drawn) | inactive | – |
| CSc1ccc(C(=O)C2CCCN(C(=O)c3cccnc3SC)C2)cc1 (stereo not drawn) | inactive | – |
| CCC1CCCCN1C(=O)NC(=O)c1ccccc1 (stereo not drawn) | inactive | – |
| COC(C/C=C/C(=O)[C@H](C)OCc1ccccc1)OC | inactive | – |
| Cn1c(CN2CCOCC2)c(C#N)c2ccccc21 | inactive | – |
| O=C(C1CCC(=O)N(C2CC2)C1)N1CCN(c2ccccc2Cl)CC1 (stereo not drawn) | inactive | – |
| COc1ccc(-c2cc(C(F)(F)F)nc(SCC(=O)NCc3cnn(C)c3C)n2)cc1OC | inactive | – |
| O=C(CN1CCC(NC(=O)c2ccc(Br)cc2)CC1)NCc1cccs1 | inactive | – |
| Cc1cc(N2CCOCC2)n2cc(-c3ccccc3)nc2n1 | inactive | – |
| Oc1ccc(-c2nc3ccccn3c2NCc2ccco2)cc1 | inactive | – |
| O=S(=O)(c1ccccc1)c1cnn2c(C(F)(F)F)cc(-c3ccc(F)cc3)nc12 | inactive | – |
| Nc1c(C(=O)NCc2ccccc2)sc2nc(N3CCOCC3)c3c(c12)CCCC3 | inactive | – |
| COC(=O)c1ccc(-c2ccc(CNCC(O)c3ccccc3)o2)cc1 (stereo not drawn) | inactive | – |
| CCC(=O)Nc1cc(-c2nn(CC(=O)N3CCCCC3)c(=O)c3ccccc23)ccc1N1CCOCC1 | inactive | – |

| Compound | activity change, negative = inhibition | AC50 |
| --- | --- | --- |
| CCCCOc1ccc(Cc2c(COCC)[nH]c(=S)[nH]c2=O)cc1 | inactive | – |
| CC(C)CNC(=O)Nc1ccc(F)c(Cl)c1 | inactive | – |
| COC(C[C@@H]1O[C@@H]1C(=O)[C@@H](C)OCc1ccccc1)OC | inactive | – |
| C=CC[N+]1(C)CC[C@]23c4c5ccc(O)c4O[C@H]2C(=O)CC[C@@]3(O)[C@H]1C5 (stereo partly drawn) | inactive | – |
| O=C(Nc1cc(S(=O)(=O)N2CCCCC2)ccc1Cl)c1ccccc1NS(=O)(=O)c1ccc(F)cc1 | inactive | – |
| CCCCCCCCNC(C)C(O)c1ccc(SC(C)C)cc1 (stereo not drawn) | inactive | – |
| CC1CCc2c(sc(NC(=O)COC(=O)c3ccccc3NCc3ccco3)c2C#N)C1 (stereo not drawn) | inactive | – |
| Cc1nc(SC(C(=O)c2ccccc2)c2ccccc2)nc2ccccc12 (stereo not drawn) | inactive | – |
| COc1ccc(OC)c(/C=N/c2c(-c3ccc(O)c(OC)c3)nc3ccccn23)c1 | inactive | – |
| COc1ccc(OCC(=O)NS(=O)(=O)c2ccc(Cl)cc2)cc1 | inactive | – |
| CCN(CC)c1ccc(C(=O)c2ccccc2C(=O)O)c(O)c1 | inactive | – |
| CN1CCN(C(=S)NC(=O)c2ccccc2Cl)CC1 | inactive | – |
| CCOc1ccc(NC(=O)CCSc2ccc(C)cc2)cc1 | inactive | – |
| O=C(COc1ccccc1)Nc1cccc(-c2nc3cc4ccccc4cc3[nH]2)c1 | inactive | – |
| C/C=C(/C)C(=O)O[C@H]1[C@@H](O)c2c(ccc3ccc(=O)oc23)OC1(C)C | inactive | – |
| CCCCn1c(=O)c(-c2ccccc2)c(O)c2ccccc21 | inactive | – |
| O=C1NC2(C=Cc3c(ccc4ccccc34)O2)Oc2ccccc21 (stereo not drawn) | inactive | – |
| CC(=O)Nc1ccc(Cl)cc1C1COC(=O)C1=N (stereo not drawn) | inactive | – |
| Cc1cc(N/N=C/c2ccc(O)c(C)c2O)nc(-c2ccccc2O)n1 | inactive | – |
| O=C(Nc1cccc2ncccc12)c1cccnc1 | inactive | – |
| O=C1OCCN1C(=O)[C@H]1[C@H](c2ccc(F)cc2)C(c2ccc(F)cc2)=NN1c1ccc(Br)cc1 | inactive | – |
| CC1=C(C(=O)OCc2ccccc2)C(c2ccc(-c3ccccc3)cc2)NC(=O)N1CCCC(=O)O (stereo not drawn) | inactive | – |
| CC(=O)NC(Cc1c[nH]c2ccccc12)C(=O)O (stereo not drawn) | inactive | – |
| CCN(C(=O)COC(=O)c1cc(-c2cccs2)nc2ccccc12)C1CCS(=O)(=O)C1 (stereo not drawn) | inactive | – |

| Compound | activity change, negative = inhibition | AC50 |
| --- | --- | --- |
| COc1ccccc1-c1cc(C(=O)O)c2c(=O)n(C)c(=O)n(Cc3ccccc3)c2n1 | inactive | – |
| Cc1ccnc(-n2c(-c3ccco3)nc3ccccc3c2=O)c1 | inactive | – |
| O=C(O)c1ccc2cccc(Cl)c2c1O | inactive | – |
| CC(=O)OCC[N+](C)(C)C | inactive | – |
| CCN1CCN(CC(O)COc2ccc3c(C)cc(=O)oc3c2)CC1 (stereo not drawn) | inactive | – |
| COCCCNC(=O)c1cc2cc3cc(OC)ccc3nc2o1 | inactive | – |
| O=C(Nc1cc(Cl)cc(Cl)c1)c1coc(=O)c(Br)c1 | inactive | – |
| Oc1ccc(-c2cn3cc(C(F)(F)F)ccc3n2)cc1 | inactive | – |
| CCCCNC(=S)NNC(=O)CCn1cc(C)cn1 | inactive | – |
| CCn1c(COc2cccc(C)c2)nnc1SCC(=O)NC1CCCC1 | inactive | – |
| CCn1nc(C)cc1C(=O)NC1CC(C)(C)Cc2c1cnn2-c1cccc(F)c1 (stereo not drawn) | inactive | – |
| COc1ccccc1NC(=O)CN(c1ccc(C23CC4CC(CC(C4)C2)C3)cc1)S(C)(=O)=O | inactive | – |
| O=C(Nc1ccc(F)cc1)Oc1ccccc1N1CCOCC1 | inactive | – |
| Cc1cc(C)n(CC(=O)NC2CCCCC2C)c(=O)c1C#N (stereo not drawn) | inactive | – |
| O=C(C1=C[C@@H](C2CC2)C[C@@H](OCc2ccc(CO)cc2)O1)N1CCN(Cc2ccccc2)CC1 | inactive | – |
| CCCCn1c(=O)[nH]c(=O)c2c1nc(-c1ccc(OC)c(Br)c1)n2CC(C)C | inactive | – |
| CC(C)[C@H](NC(=O)OCc1ccccc1)C(=O)OCC(=O)Nc1c(F)cccc1F | inactive | – |
| Cc1nc2c(C)cccn2c(=O)c1NC(=O)COc1ccccc1 | inactive | – |
| COc1ccc(C)cc1NC(=O)CN1C(=O)COc2ccc(S(=O)(=O)N3CCOCC3)cc21 | inactive | – |
| O=C1CCCN1CC(O)CS(=O)(=O)c1ccccc1 (stereo not drawn) | inactive | – |
| CCOC(=O)c1cc(C)[nH]c(=O)c1C#N | inactive | – |
